How the values were obtained:
DAT = DAT (Homo sapiens (Human), UniProt Q01959); conditions: read-out: IC50 inhibiting reuptake at DAT; cited from earlier work
SERT = SERT (Homo sapiens (Human), UniProt P31645); conditions: read-out: IC50 inhibiting reuptake at SERT; cited from earlier work
5-HT1B = 5-HT1B (Homo sapiens (Human), UniProt P28222); conditions: cited from earlier work
[1] = target: T1, serotonin (5-HT) transporter (SERT) (Rattus norvegicus (Rat), UniProt P31652); experiment: Rat synaptosome SERT [3H]5-HT uptake inhibition assay; conditions: Inhibition of [3H]5-HT Uptake at SERT IC50 (nM), 5 nM [3H]5-HT
[2] = target: T1, serotonin (5-HT) transporter (SERT); experiment: Rat synaptosome SERT [3H]5-HT release assay; conditions: [3H]5-HT release via SERT EC50 (nM), 5 nM [3H]5-HT
neuritogenesis = conditions: cited from earlier work

Chain of 5-HT1B (P28222 whole entry, looked up, species assumed): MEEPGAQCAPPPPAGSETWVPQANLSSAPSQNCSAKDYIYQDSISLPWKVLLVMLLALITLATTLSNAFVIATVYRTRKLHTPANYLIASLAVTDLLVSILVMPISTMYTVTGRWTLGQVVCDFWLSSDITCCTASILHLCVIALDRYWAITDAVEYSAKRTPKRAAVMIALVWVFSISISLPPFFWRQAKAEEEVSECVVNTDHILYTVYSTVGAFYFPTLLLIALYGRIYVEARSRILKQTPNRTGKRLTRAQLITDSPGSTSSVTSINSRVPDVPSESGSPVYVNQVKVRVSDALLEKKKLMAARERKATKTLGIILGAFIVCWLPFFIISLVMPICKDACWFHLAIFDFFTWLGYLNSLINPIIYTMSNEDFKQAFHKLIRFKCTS

SMILES	IC50 (DAT)	IC50 (SERT)	binding to 5-HT1B (5-HT1B)	IC50 [1]	EC50 [2]	EC50 (neuritogenesis; read-out: EC50 for promoting neuritogenesis)	Emax for promoting neuritogenesis (neuritogenesis; relative to ketamine)
CNC(C)Cc1ccc2occc2c1 (racemic) [racemic 5-MAPB, 1-(benzofuran-5-yl)-N-methylpropan-2-amine]	3100 nM	8500 nM	–	–	–	–	–
CNC(C)Cc1ccc2c(c1)OCO2 (stereo not shown) [MDMA]	–	–	does not bind directly	384 ± 32.8 nM	94.3 ± 13.6 nM	7.41 nM	approximately twice that of ketamine

From patent US11767305B2, “Advantageous benzofuran compositions for mental disorders or enhancement” (Tactogen Inc, priority 2020, dated 2023)
